From patent publication US11180501B2, “Crystal form of β-lactamase inhibitor and preparation method therefor” (priority 2017, dated 2021)
In brackets after ≈: the same amount, converted by molar mass. Read-outs that look alike come from different tables or passages of the source.

Key:
[1] = system: KPC-2 carbapenemase-producing Klebsiella Pneumoniae; assay: In vitro synergistic inhibitory concentration (SIC) assay, broth microdilution MIC; format: cell-based; details: for drug resistance rate / sensitive rate: by the S/R criteria; for MIC50 / MIC90: Klebsiella pneumoniae
Procedure: (§1) The minimum inhibitory concentration (MIC) of the compound of formula (I) against clinically isolated carbapenemase-producing strains was determined by the broth microdilution method.
(§2) 1. Drug susceptibility test: the MIC of commonly used antibacterial drugs against clinically isolated bacteria was determined by the broth microdilution method according to the antimicrobial susceptibility test method described in the 2016 edition of the U.S. Clinical and Laboratory Standards Institute (CLSI) document.
(§3) 2. Strains: 8 KPC-2 carbapenemase-producing strains, 8 NDM-1 metalloenzyme-producing strains, 6 OXA carbapenemase-producing strains, and all strains were clinically isolated Klebsiella pneumoniae.
(§4) 4. Quality control strains: the quality control strains for the drug susceptibility test included Escherichia coli ATCC 25922 and ATCC 35218.

[2] = system: NDM-1 carbapenemase-producing Klebsiella Pneumoniae; assay: as above; format: cell-based; details: for MIC50 / MIC90: Klebsiella pneumoniae; for MIC50 / MIC90 / drug resistance rate / sensitive rate / MIC range: NDM-1, 8 strains; for MIC50 / MIC90 / MIC range: enzyme inhibitor fixed at 4 g/mL (so in the source); for drug resistance rate / sensitive rate: by the S/R criteria
Procedure: as §1, §2, §3, §4

[3] = system: OXA-181 carbapenemase-producing Klebsiella Pneumoniae; assay: as above; format: cell-based; details: for MIC50 / MIC90: Klebsiella pneumoniae; for drug resistance rate / sensitive rate: by the S/R criteria
Procedure: as §1, §2
2. […]
as §4

[4] = Hygroscopicity by dynamic vapor sorption (DVS); format: physicochemical
Procedure: 1.4 Dynamic Vapor Sorption (DVS) Instrument model: SMS DVS Advantage dynamic vapor sorption analyzer Detection conditions: samples (10 mg to 15 mg) were placed in a DVS sample tray for detection. The detailed DVS parameters are as follows: Temperature: 25° C. Equilibrium: dm/dt=0.01%/min (shortest: 10 min, longest: 180 min) Drying: 120 minutes at 0% RH RH (%) gradient for testing: 10% RH (%) gradient range for testing: 0%-90%-0% The hygroscopicity was evaluated using the following scales: [table] Experimental Method: a sample (10-15 mg) was placed in a DVS sample tray for testing, and analyzed by dynamic vapor sorption (DVS) method.

[5] = Thermal gravimetric analysis (TGA); format: physicochemical
Procedure: 1.3 Thermal Gravimetric Analyzer (TGA)
Instrument Model: TA Q5000 thermal gravimetric analyzer
Detection method: samples (2 mg to 5 mg) were placed in a TGA platinum crucible for detection, and heated from room temperature to 210° C. with a heating rate of 10° C./min under the condition of 25 mL/min N2.

[6] = Solubility test of the crystal form A; format: physicochemical; details: thermodynamic from solid, room temperature
Procedure: Experimental Method: about 2.0 mg sample was weighed and placed into a 1.5 mL borosilicate glass bottle, followed by addition of the following solvents with a pipetting gun respectively, and appropriate ultrasonic treatment was performed for dissolving. The test was carried out at room temperature, and the dissolution was detected by naked eye.

pKa of side-chain group = format: physicochemical; details: guanidinoxy group
[7] = Study on polymorphism, solvent scheme 1 (suspension); format: physicochemical; details: 40° C. in the dark for 2 days, XRPD
Procedure: 1. Three samples of about 35 mg of the compound of formula (I) were weighed and placed into 1.5 mL borosilicate glass bottles, respectively, followed by addition of 200 μL of solvent (see Table 2 for the solvent scheme). The obtained mixture was mixed evenly with ultrasound and then placed on a thermostatic oscillator, stirred at 40° C. in the dark for 2 days, and centrifuged quickly. The obtained solid was subjected to XRPD detection (wet product), and then dried in a vacuum dryer at 30° C. for about 15 hours. The obtained dry product was subjected to XPRD detection (dry product).

[8] = Study on polymorphism, solvent scheme 2 (dissolved, evaporated to dryness); format: physicochemical; details: 40° C. 2 days, XRPD
Procedure: 2. Three samples of about 35 mg of compound of formula (I) were weighed and placed into 1.5 mL borosilicate glass bottles, respectively, followed by addition of 600 μL of a solvent (see Table 3 for the solvent scheme). The obtained mixture was mixed evenly with ultrasound and then placed on a thermostatic oscillator, stirred at 40° C. in the dark for 2 days. Then the samples was placed into a fume hood and evaporated to dryness. The obtained samples were subjected to XRPD detection (wet product). The samples were placed in a vacuum dryer and dried at 30° C. for about 15 hours. The obtained dried samples were subjected to XRPD detection (dry product).

[9] = system: Klebsiella pneumoniae (ATCC BAA-1705, KPC-2); assay: Mouse lung infection model; format: in vivo; details: female CD-1 mice, ip, with ceftazidime, FIG. 5
Procedure: Female CD-1 mice of about 7 weeks old, weighing 26-28 g; cyclophosphamide was injected at a dose of 150 mg/kg 4 days before infection, and further 100 mg/kg 1 day before infection; the bacteria for infection was Klebsiella pneumoniae (ATCC BAA-1705, KPC-2). The compound of formula (I) and the reference compound OP-0595 were synthesized in the laboratory.
Female CD-1 mice were infected with Klebsiella pneumoniae by intranasal instillation. Each mouse was instilled with 50 μL of bacterial liquid through nasal cavity at a dose of 3.14E+07 CFU per mouse. At 2 h, 4 h, 6 h and 8 h after infection, each group of mice were treated with a corresponding compound or a combination of compounds by intraperitoneal injection.
At 10 h after infection, the mice in groups 1, 2 and 3 were euthanized, and the lungs were taken out and placed in 50 mL centrifuge tubes containing 10 mL of sterile normal saline, the tubes were placed on wet ice and transferred to BSL-2 laboratory for CFU counting. […]
The lungs were ground with an IKA T10 homogenizer (the maximum speed was 20S, repeated once). […] After 24 hours, the plate was taken out and the number of single colonies grown in each homogenate with a gradient dilution on the plate was counted, and the amount of bacterial load in the lung of each mouse was calculated.

[10] = KPC-2, 8 strains, enzyme inhibitor fixed at 4 g/mL (so in the source)
[11] = OXA-181, 7 strains, enzyme inhibitor fixed at 4 g/mL (so in the source)

## CC(C)(O/N=C(\C(=O)N[C@@H]1C(=O)N2C(C(=O)[O-])=C(C[n+]3ccccc3)CS[C@H]12)c1csc(N)n1)C(=O)O [Ceftazidime]
[1]; KPC-2, 8 strains
  drug resistance rate: 100
  sensitive rate: 0
[1]; [10]
  MIC range: 64 to 128 µg/mL
  MIC50: > 128 µg/mL
[1]; KPC-2, 8 strains, enzyme inhibitor fixed at 4 g/mL (so in the source), read-out: MIC90
  MIC90: > 128 µg/mL
[2]
  MIC50: > 128 µg/mL
  MIC90: > 128 µg/mL
  drug resistance rate: 100
  sensitive rate: 0
  MIC range: >128 µg/mL
[3]; [11]
  MIC50: > 128 µg/mL
  MIC90: > 128 µg/mL
[3]; OXA-181, 7 strains
  drug resistance rate: 100
  sensitive rate: 0

## C[C@H]1[C@H](NC(=O)/C(=N\OC(C)(C)C(=O)O)c2csc(N)n2)C(=O)N1S(=O)(=O)O [Aztreonam]
[2]
  MIC50: 64 µg/mL

## N=C(N)NOCCONC(=O)C1CCC2CN1C(=O)N2OS(=O)(=O)O (stereo not drawn)
[4]; DVS, 25° C./80% RH
  hygroscopic weight gain ΔW: 0.2910%
  hygroscopicity scale: low hygroscopicity
[4]; after DVS test
  crystal form after DVS (XRPD): the crystal form has not changed
[5]; TGA
  thermal stability: good thermal stability
[5]; heated to 194.61° C.
  TGA weight loss: 0.5689%
[6]; aqueous with cosolvent or surfactant or cyclodextrin, Acetone-water (1:2)
  solubility: 20500 to 34200 µg/mL (≈ 53.6 to 89.4 mM)
[6]; aqueous with cosolvent or surfactant or cyclodextrin, Acetonitrile-water (1:1)
  solubility: > 103000 µg/mL
[6]; aqueous with cosolvent or surfactant or cyclodextrin, Ethanol-water (1:1)
  solubility: 10100 to 20200 µg/mL (≈ 26.4 to 52.8 mM)
[6]; aqueous with cosolvent or surfactant or cyclodextrin, Ethanol-water (3:1)
  solubility: < 2000 µg/mL
[6]; aqueous with cosolvent or surfactant or cyclodextrin, Isopropanol-water (1:1)
  solubility: 6800 to 10200 µg/mL (≈ 17.8 to 26.7 mM)
[6]; aqueous with cosolvent or surfactant or cyclodextrin, Methanol-water (1:1)
  solubility: 4100 to 5200 µg/mL (≈ 10.7 to 13.6 mM)
[6]; aqueous with cosolvent or surfactant or cyclodextrin, Methanol-water (3:1)
  solubility: 2100 to 2600 µg/mL (≈ 5.49 to 6.8 mM)
[6]; organic solvent or mixture, 1,4-Dioxane
  solubility: < 2100 µg/mL
[6]; organic solvent or mixture, 2-Methyltetrahydrofuran
  solubility: < 2000 µg/mL
[6]; organic solvent or mixture, Acetone
  solubility: < 1900 µg/mL
[6]; organic solvent or mixture, Acetonitrile
  solubility: < 1900 µg/mL
[6]; organic solvent or mixture, Butanone
  solubility: < 2000 µg/mL
[6]; organic solvent or mixture, Cyclohexane
  solubility: < 2100 µg/mL
[6]; organic solvent or mixture, Ethanol
  solubility: < 1900 µg/mL
[6]; organic solvent or mixture, Ethyl acetate
  solubility: < 2000 µg/mL
[6]; organic solvent or mixture, Isopropanol
  solubility: < 2000 µg/mL
[6]; organic solvent or mixture, Isopropyl acetate
  solubility: < 2000 µg/mL
[6]; organic solvent or mixture, Methanol
  solubility: < 1900 µg/mL
[6]; organic solvent or mixture, Methyl isobutyl ketone
  solubility: < 2000 µg/mL
[6]; organic solvent or mixture, Methyl tert-butyl ether
  solubility: < 2000 µg/mL
[6]; organic solvent or mixture, Tetrahydrofuran
  solubility: < 2000 µg/mL
[6]; organic solvent or mixture, Toluene
  solubility: < 2000 µg/mL
[6]; organic solvent or mixture, n-Butanol
  solubility: < 2000 µg/mL
[6]; organic solvent or mixture, n-Heptane
  solubility: < 2000 µg/mL
[6]; Water
  solubility: 10200 to 20400 µg/mL (≈ 26.7 to 53.4 mM)

## C[C@@H](O)[C@H]1C(=O)N2C(C(=O)O)=C(S[C@@H]3CN[C@H](C(=O)N(C)C)C3)[C@H](C)[C@H]12 [Meropenem]
[1]; KPC-2, 8 strains
  drug resistance rate: 100
  sensitive rate: 0
[1]
  MIC90: 128 µg/mL
[1]; [10]
  MIC50: 64 µg/mL
[2]
  MIC50: 4 µg/mL
  MIC90: 32 µg/mL
  drug resistance rate: 75
  sensitive rate: 0
  MIC range: 2 to 32 µg/mL
[3]; [11]
  MIC50: 0.5 µg/mL
  MIC90: 2 µg/mL
  MIC range: 0.5 to 2 µg/mL
[3]; OXA-181, 7 strains
  drug resistance rate: 0
  sensitive rate: 85.7

## N=C(N)NOCCONC(=O)C1CCC2CN1C(=O)N2OS(=O)(=O)O (stereo not drawn) [the compound of formula (I)]
pKa of side-chain group
  pKa: 8.83
[7]; Acetone
  Crystal form: Crystal form A
[7]; Acetonitrile
  Crystal form: Crystal form A
[7]; Cyclohexane
  Crystal form: Crystal form A
[7]; Ethanol
  Crystal form: Crystal form A
[7]; Ethanol-water (volume ratio 1:1)
  Crystal form: Crystal form A
[7]; Ethanol-water (volume ratio 3:1)
  Crystal form: Crystal form A
[7]; Ethyl acetate
  Crystal form: Crystal form A
[7]; Isopropanol-water (volume ratio 1:1)
  Crystal form: Crystal form A
[7]; Methanol
  Crystal form: Crystal form A
[7]; Methanol-water (volume ratio 1:1)
  Crystal form: Crystal form A
[7]; Methanol-water (volume ratio 3:1)
  Crystal form: Crystal form A
[7]; Tetrahydrofuran
  Crystal form: Crystal form A
[7]; Water
  Crystal form: Crystal form A
[8]; Acetone-water (volume ratio 1:2)
  Crystal form: Crystal form A
[8]; Acetonitrile-water (volume ratio 1:1)
  Crystal form: Crystal form A
[1]; in combination with an antibiotic, KPC-2 type
  antibacterial activity (conclusion): strong antibacterial activity
[2]; NDM-1 type carbapenemase-producing bacteria
  inhibitory activity compared with avibactam: significantly better than that of avibactam
[2]; in combination with an antibiotic, NDM-1 type
  antibacterial activity (conclusion): strong antibacterial activity
[3]; in combination with an antibiotic, OXA-181 type
  antibacterial activity (conclusion): strong antibacterial activity
[9]; at two different doses (25 & 6.25 mpk; 50 & 12.5 mpk)
  reduction of the amount of bacterial load in the lung versus the reference group of OP-0595: 0.5-1.5 logs
[9]
  potency compared with OP-0595: significantly more potent than the reference compound OP-0595
